Tests used:
Type in all cases: biochemical
[1] = biological target: h4D7 (Homo sapiens, UniProt Q08499); assay: In-vitro assay for PDE4 enzymes, real-time enzyme-coupled spectrophotometric assay (Table 3)
Experimental: (§1) In-vitro assay for PDE4 enzymes. The in-vitro activity of PDE4 enzymes and the in-vitro potency of therapeutic agents described in the present invention was measured using a real-time, enzyme-coupled spectrophotometric assay. By using three different coupling enzymes, the product of the PDE4 reaction is coupled to the oxidation of the reduced form β-nicotinamide adenine dinucleotide (NADH), which dissipation can be monitored spectrophotmetrically at […]. Assay description. Buffer A containing 50 mM Tris, pH 8.0, 16 mM MgCl2 and 80 mM KCl is prepared and stored at room temperature. Buffer B containing 50 mM Tris, pH 8.0 is prepared and stored at toom temperature. Stock solutions of the following reagents are prepared in Buffer B and stored at −20° C.: Adenosine-5′-triphosphate (ATP), cyclic adenosine-5′-monophosphate (cAMP), phosphoenolpyruvate (PEP) and NADH. An assay mix is prepared by mixing Buffer A, […] (TCEP), ATP, PEP, NADH, myokinase (MK), pyruvate kinase (PK), lactate dehydroganese (LDH) and PDE4 to a final volume of 20 mL, which is enough for a single 96-well assay plate. Assay mix (180 μL) and test article (10 μL) in 1:1 DMSO/H2O mixture is pre-incubated at room temperature for 10 min. The enzymatic reaction is initiated by addition of cAMP (10 μL). Final concentration of all components in the assay (200 μL/well) are as follows: 10 mM MgCl2, 50 mM KCl, 5 mM TCEP, 2.5% DMSO, 0.4 mM NADH, 1 mM PEP, 0.04 mM ATP, 5 units MK, 1 unit PK, 1 unit LDH and appropriate amount of PDE4. Reaction progress curves are monitored in a plate reader capable of measuring light absorbance at 340 nm. A decrease in light absorbance at 340 nm is due to oxidation of NADH. Positive controls containing no test article and negative controls containing no test article and no cAMP are included on every assay plate. Reaction rates are determined from the slopes of the linear portions of the progress curves. All data is percent normalized with respect to controls and presented as percent inhibition.

[2] = biological target: human PDE4D isozyme (Homo sapiens, UniProt Q08499); assay: IC50 for human PDE4D isozyme (Table 4); details: read-out: IC50 for human PDE4D isozyme, hPDE4D
Experimental: as §1

[3] = biological target: human PDE4B isozyme (Homo sapiens, UniProt Q07343); assay: IC50 for human PDE4B isozyme (Table 5); details: read-out: IC50 for human PDE4B isozyme, hPDE4B
Experimental: as §1

Chain of human PDE4D isozyme (Q08499 whole entry): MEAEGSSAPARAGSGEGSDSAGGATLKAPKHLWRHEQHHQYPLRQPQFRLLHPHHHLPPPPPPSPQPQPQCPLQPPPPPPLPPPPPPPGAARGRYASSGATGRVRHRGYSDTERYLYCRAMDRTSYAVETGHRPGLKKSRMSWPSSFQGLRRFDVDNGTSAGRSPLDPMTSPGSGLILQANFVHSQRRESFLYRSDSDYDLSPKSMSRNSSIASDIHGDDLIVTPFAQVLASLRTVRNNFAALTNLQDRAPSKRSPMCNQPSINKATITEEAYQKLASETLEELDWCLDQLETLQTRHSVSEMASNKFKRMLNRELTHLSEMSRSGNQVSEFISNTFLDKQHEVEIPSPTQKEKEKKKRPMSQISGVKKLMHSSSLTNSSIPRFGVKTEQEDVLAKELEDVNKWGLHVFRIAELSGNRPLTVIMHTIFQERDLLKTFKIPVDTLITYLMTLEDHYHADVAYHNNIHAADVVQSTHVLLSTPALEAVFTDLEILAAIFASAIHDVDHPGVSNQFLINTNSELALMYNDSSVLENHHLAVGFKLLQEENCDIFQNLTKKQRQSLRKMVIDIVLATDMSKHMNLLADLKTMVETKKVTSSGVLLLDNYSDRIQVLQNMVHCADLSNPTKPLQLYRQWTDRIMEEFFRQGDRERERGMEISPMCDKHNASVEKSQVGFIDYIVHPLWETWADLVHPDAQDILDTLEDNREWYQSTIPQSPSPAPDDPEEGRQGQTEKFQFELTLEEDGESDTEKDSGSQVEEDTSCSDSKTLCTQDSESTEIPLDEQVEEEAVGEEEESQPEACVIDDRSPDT
Chain of h4D7 (Q08499 1-748 isoform Q08499-11): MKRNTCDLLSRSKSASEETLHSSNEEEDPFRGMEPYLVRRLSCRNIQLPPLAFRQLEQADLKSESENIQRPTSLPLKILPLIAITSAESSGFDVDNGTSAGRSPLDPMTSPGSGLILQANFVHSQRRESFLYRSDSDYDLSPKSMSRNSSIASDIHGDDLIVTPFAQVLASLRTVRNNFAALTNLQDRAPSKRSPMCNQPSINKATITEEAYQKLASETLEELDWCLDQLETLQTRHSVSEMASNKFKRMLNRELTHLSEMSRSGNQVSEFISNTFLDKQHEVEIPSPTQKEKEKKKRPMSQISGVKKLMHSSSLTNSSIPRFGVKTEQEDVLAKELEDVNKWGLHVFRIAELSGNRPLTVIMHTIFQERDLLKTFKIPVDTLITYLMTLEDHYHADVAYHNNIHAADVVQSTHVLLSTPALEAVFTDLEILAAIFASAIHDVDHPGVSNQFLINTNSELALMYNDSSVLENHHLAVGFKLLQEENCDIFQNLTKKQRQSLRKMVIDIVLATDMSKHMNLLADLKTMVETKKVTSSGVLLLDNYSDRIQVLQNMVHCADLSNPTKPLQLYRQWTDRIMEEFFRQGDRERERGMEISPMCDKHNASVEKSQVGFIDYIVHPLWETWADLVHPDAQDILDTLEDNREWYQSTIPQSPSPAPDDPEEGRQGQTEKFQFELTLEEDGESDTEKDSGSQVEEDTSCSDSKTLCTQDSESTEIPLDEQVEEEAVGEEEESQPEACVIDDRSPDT
Chain of human PDE4B isozyme (Q07343 whole entry): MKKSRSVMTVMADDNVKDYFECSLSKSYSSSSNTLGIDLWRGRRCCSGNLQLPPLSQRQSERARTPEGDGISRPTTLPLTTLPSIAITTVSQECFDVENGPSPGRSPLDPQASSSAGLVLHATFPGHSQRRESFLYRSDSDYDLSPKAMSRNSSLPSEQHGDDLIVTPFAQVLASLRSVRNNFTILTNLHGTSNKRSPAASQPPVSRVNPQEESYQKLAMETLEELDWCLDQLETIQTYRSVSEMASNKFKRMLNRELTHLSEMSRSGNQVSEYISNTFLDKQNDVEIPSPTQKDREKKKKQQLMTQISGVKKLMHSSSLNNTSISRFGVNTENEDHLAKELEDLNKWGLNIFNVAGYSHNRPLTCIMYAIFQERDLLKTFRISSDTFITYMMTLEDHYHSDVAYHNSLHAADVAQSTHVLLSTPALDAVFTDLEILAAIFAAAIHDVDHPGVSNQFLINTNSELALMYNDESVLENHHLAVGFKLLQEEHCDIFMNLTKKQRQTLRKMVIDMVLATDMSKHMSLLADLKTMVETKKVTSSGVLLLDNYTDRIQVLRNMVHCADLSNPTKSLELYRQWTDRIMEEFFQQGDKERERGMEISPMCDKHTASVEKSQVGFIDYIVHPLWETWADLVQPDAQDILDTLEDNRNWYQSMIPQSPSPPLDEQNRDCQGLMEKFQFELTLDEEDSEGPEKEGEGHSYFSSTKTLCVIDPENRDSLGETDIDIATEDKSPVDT

Row | IC50 [1] [µM] | IC50 [2] [µM] | IC50 [3] [µM] | Structure (SMILES)
1 | < 1 | – | – | Nc1ccc(Cc2cc3sc(N)nc3c(-c3cccc(Cl)c3)c2F)cc1 [Example 16, 6-(4-amino-benzyl)-4-(3-chloro-phenyl)-5-fluoro-benzothiazol-2-ylamine]
2 | 1 to 10 | – | – | NC(=O)NC1CCN(Cc2cc3scnc3c(-c3cccc(Cl)c3)c2F)CC1 [Example 46, [1-[4-(3-Chloro-phenyl)-5-fluoro-benzothiazol-6-ylmethyl]-piperidin-4-yl]-urea]
3 | – | < 5 | < 5 | O=C1CCCN1Cc1cc2scnc2c(-c2cccc(Cl)c2)c1F [BA-54, 1-[4-(3-Chloro-phenyl)-5-fluoro-benzothiazol-6-ylmethyl]-pyrrolidin-2-one]
4 | – | < 5 | < 5 | COc1ccc(Cc2cc3scnc3c(-c3cccc(Cl)c3)c2F)cn1 [BA-38, 4-(3-chloro-phenyl)-5-fluoro-6-(6-methoxy-pyridin-3-ylmethyl)-benzothiazole]
5 | – | < 5 | 5 to 20 | CS(=O)(=O)Nc1ccc(Cc2cc3sc(N)nc3c(-c3cccc(Cl)c3)c2F)cc1 [BA-19, N-{4-[2-amino-4-(3-chloro-phenyl)-5-fluoro-benzothiazol-6-ylmethyl]-phenyl}-methanesulfonamide]
6 | – | < 5 | < 5 | Nc1nc2c(-c3cccc([N+](=O)[O-])c3)cc(Cc3ccc(F)cc3)cc2s1 [BA-01, 6-(4-fluorobenzyl)-4-(3-nitrophenyl)-benzothiazol-2-yl amine]
7 | – | < 5 | < 5 | CCNC(=O)Nc1ccc(Cc2cc(-c3cccc(Cl)c3)c3nc(C)sc3c2)cn1 [BA-67, 1-{5-[4-(3-chloro-phenyl)-2-methyl-benzothiazol-6-ylmethyl]-pyridin-2-yl}-3-ethyl-urea]
8 | – | < 5 | 5 to 20 | Fc1c(CN2CCNCC2)cc2scnc2c1-c1cccc(Cl)c1 [BA-48, 4-(3-Chloro-phenyl)-5-fluoro-6-piperazin-1-ylmethyl-benzothiazole]
9 | – | < 5 | < 5 | NC(=O)N1CCN(Cc2cc3scnc3c(-c3cccc(Cl)c3)c2F)CC1 [BA-31, 4-[4-(3-Chloro-phenyl)-5-fluoro-benzothiazol-6-ylmethyl]-piperazine-1-carboxylic acid amide]
10 | – | < 5 | 5 to 20 | CCOC(=O)NC1CCN(Cc2cc3scnc3c(-c3cccc(Cl)c3)c2F)CC1 [BA-45, {1-[4-(3-Chloro-phenyl)-5-fluoro-benzothiazol-6-ylmethyl]-piperidin-4-yl}-carbamic acid ethyl ester]
11 | – | < 5 | < 5 | Oc1cccc(Cc2cc3scnc3c(-c3cccc(Cl)c3)c2F)c1 [BA-39, 3-[4-(3-chloro-phenyl)-5-fluoro-benzothiazol-6-ylmethyl]-phenol]
12 | – | < 5 | < 5 | CCNC(=O)Nc1ccc(Cc2cc3scnc3c(-c3cccc(C#N)c3)c2F)cn1 [BA-53, 1-{5-[4-(3-cyano-phenyl)-5-fluoro-benzothiazol-6-ylmethyl]-pyridin-2-yl}-3-ethyl-urea]
13 | – | < 5 | < 5 | Nc1ccc(Cc2cc3scnc3c(-c3cccc(Cl)c3)c2F)cc1 [BA-23, 4-[4-(3-chloro-phenyl)-5-fluoro-benzothiazol-6-ylmethyl]-phenylamine]
14 | – | < 5 | < 5 | CCNC(=O)N1CCN(Cc2cc3scnc3c(-c3cccc(Cl)c3)c2F)C(=O)C1 [BA-72, 4-[4-(3-Chloro-phenyl)-5-fluoro-benzothiazol-6-ylmethyl]-3-oxo-piperazine-1-carboxylic acid ethylamide]
15 | – | < 5 | < 5 | Nc1nc2c(-c3cccc([N+](=O)[O-])c3)cc(Cn3cccn3)cc2s1 [BA-10, 4-(3-Nitro-phenyl)-6-pyrazol-1-ylmethyl-benzothiazol-2-ylamine]
16 | – | < 5 | < 5 | CCOC(=O)N1CCN(Cc2cc3scnc3c(-c3cccc(Cl)c3)c2F)CC1 [BA-49, 4-[4-(3-Chloro-phenyl)-5-fluoro-benzothiazol-6-ylmethyl]-piperazine-1-carboxylic acid ethyl ester]
17 | – | < 5 | 20 to 40 | Clc1cccc(-c2cc(Cc3ccc(N4CCCC4)nc3)cc3scnc23)c1 [BA-59, 4-(3-chloro-phenyl)-6-(6-pyrrolidin-1-yl-pyridin-3-ylmethyl)-benzothiazole]

Row | IC50 [1] [µM] | IC50 [2] [µM] | IC50 [3] [µM] | Structure (SMILES)
18 | – | < 5 | < 5 | CCNC(=O)Nc1ccc(Cc2cc3scnc3c(-c3cccc(Cl)c3)c2F)cn1 [BA-33, 1-[5-[4-(3-chloro-phenyl)-5-fluoro-benzothiazol-6-ylmethyl]-pyridin-2-yl]-3-ethyl-urea]
19 | – | < 5 | < 5 | Cc1nc2c(-c3cccc(Cl)c3)cc(Cc3ccc(N)cc3)cc2o1 [BA-22, 4-{[4-(3-chlorophenyl)-2-methyl-1,3-benzoxazol-6-yl]methyl}aniline]
20 | – | < 5 | < 5 | NC(=O)[C@@H]1CCN1c1ccc(Cc2cc3scnc3c(-c3cccc(Cl)c3)c2F)cn1 [BA-74, (S)-1-{5-[4-(3-chloro-phenyl)-5-fluoro-benzothiazol-6-ylmethyl]-pyridin-2-yl}-azetidine-2-carboxylic acid amide]
21 | – | < 5 | < 5 | CCNC(=O)Nc1ccc(Cc2cc3scnc3c(-c3cccc(Cl)c3)c2F)cc1 [BA-30, 1-{4-[4-(3-chloro-phenyl)-5-fluoro-benzothiazol-6-ylmethyl]-phenyl}-3-ethyl-urea]
22 | – | < 5 | 5 to 20 | NC(=O)NC1CCN(Cc2cc3scnc3c(-c3cccc(Cl)c3)c2F)CC1 [BA-46, [1-[4-(3-Chloro-phenyl)-5-fluoro-benzothiazol-6-ylmethyl]-piperidin-4-yl]-urea]
23 | – | < 5 | < 5 | Cc1nc2c(-c3cccc(Cl)c3)cc(Cc3ccc(NC(N)=O)cc3)cc2o1 [BA-24, N-(4-{[4-(3-chlorophenyl)-2-methyl-1,3-benzoxazol-6-yl]methyl}phenyl)urea]
24 | – | < 5 | < 5 | Nc1nc2c(-c3ccc4c(c3)OCO4)nc(Cc3ccc(F)cc3)nc2s1 [BA-11, 7-Benzo[1,3]dioxol-5-yl-5-(4-fluorobenzyl)-thiazolo[5,4-d]pyrimidin-2-ylamine]
25 | – | < 5 | < 5 | Nc1nc2c(-c3ccc4c(c3)OCO4)cc(Cc3ccc(F)cc3)cc2s1 [BA-04, 4-Benzo[1,3]dioxol-5-yl-6-(4-fluoro-benzyl)-benzothiazol-2-ylamine]
26 | – | < 5 | < 5 | Fc1c(Cc2ccc(N3CCC3)nc2)cc2scnc2c1-c1cccc(Cl)c1 [BA-61, 6-(6-azetidin-1-yl-pyridin-3-ylmethyl)-4-(3-chloro-phenyl)-5-fluoro-benzothiazole]
27 | – | < 5 | 20 to 40 | CCNC(=O)N1CCN(Cc2cc3scnc3c(-c3cccc(Cl)c3)c2F)CC1 [BA-52, 4-[4-(3-chloro-phenyl)-5-fluoro-benzothiazol-6-ylmethyl]-piperazine-1-carboxylic acid ethylamide]
28 | – | < 5 | < 5 | CS(=O)(=O)Nc1ccc(Cc2cc(-c3cccc(Cl)c3)c3nc(N)oc3c2)cc1 [BA-20, N-{4-[2-Amino-4-(3-chloro-phenyl)-benzooxazol-6-ylmethyl]-phenyl}-methanesulfonamide]
29 | – | < 5 | < 5 | Cn1nccc1Cc1cc(-c2ccc3c(c2)OCO3)c2nc(N)sc2c1 [BA-08, 4-Benzo[1,3]dioxol-5-yl-6-(2-methyl-2H-pyrazol-3-ylmethyl)-benzothiazol-2-ylamine]
30 | – | < 5 | 5 to 20 | CS(=O)(=O)Nc1ccc(Cc2cc(-c3cccc(Cl)c3)c3nc(N)sc3c2)cc1 [BA-18, N-{4-[2-Amino-4-(3-chloro-phenyl)-benzothiazol-6-ylmethyl]-phenyl}-methanesulfonamide]
31 | – | < 5 | < 5 | CC(=O)c1cccc(-c2cc(Cn3cccn3)cc3sc(N)nc23)c1 [BA-12, 1-[3-(2-Amino-6-pyrazol-1-ylmethyl-benzothiazol-4-yl)-phenyl]-ethanone]
32 | 1 to 10 | – | – | Nc1nc2c(-c3ccc4c(c3)OCO4)cc(C(O)c3ccc(F)cc3)cc2s1 (stereo not drawn) [Example 5, (2-Amino-4-benzo[1,3]dioxol-5-yl-benzothiazol-6-yl)-(4-fluoro-phenyl)-methanol]
33 | – | < 5 | < 5 | Nc1nc2c(-c3cccc(Br)c3)cc(Cc3ccc(F)cc3)cc2s1 [BA-13, 4-(3-bromophenyl)-6-(4-fluorobenzyl)-1,3-benzothiazol-2-amine]

Source: patent US8883833B2, “Substituted benzoazole PDE4 inhibitors for treating inflammatory, cardiovascular and CNS disorders” (Decode Genetics EHF, priority 2007, dated 2014)
